This test concerns P388 leukemia ip, CD2F1 mice, survival T/C. Put plainly: NCI In Vivo Anticancer Drug Screen. Data for tumor model P388 Leukemia (intraperitoneal) in CD2F1 (CDF1) mice. The conditions noted are these: endpoint: median survival time, higher = longer survival. Summed up: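 Mice carrying the transplanted tumor received test compound or vehicle. Survival was recorded in each group, and the value is the treated-group measurement divided by that of the vehicle-treated control group.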

[1] abbreviates: dose: 12.5 mg/kg/injection, schedule: Q01DX009 (ip), vehicle: saline with Tween-80.
[2] abbreviates: dose: 25.0 mg/kg/injection, schedule: Q01DX009 (ip), vehicle: saline with Tween-80.
[3] abbreviates: dose: 50.0 mg/kg/injection, schedule: Q01DX009 (ip), vehicle: Klucel (hydroxypropylcellulose) (HPC).
The mark [4] stands for this setting: dose: 50.0 mg/kg/injection, schedule: Q01DX009 (ip), vehicle: saline with Tween-80.
Setting [5] is: dose: 200.0 mg/kg/injection, schedule: Q01DX009 (ip), vehicle: Klucel (hydroxypropylcellulose) (HPC).
Setting [6] is: dose: 50.0 mg/kg/injection, schedule: Q01DX005 (ip), vehicle: Klucel (hydroxypropylcellulose) (HPC).
Where [7] appears, read: dose: 100.0 mg/kg/injection, schedule: Q01DX005 (ip), vehicle: Klucel (hydroxypropylcellulose) (HPC).
The mark [8] stands for this setting: dose: 200.0 mg/kg/injection, schedule: Q01DX005 (ip), vehicle: Klucel (hydroxypropylcellulose) (HPC).
[9] abbreviates: dose: 50.0 mg/kg/injection, schedule: Q01DX005 (ip), vehicle: saline with Tween-80.
Setting [10] is: dose: 100.0 mg/kg/injection, schedule: Q01DX005 (ip), vehicle: saline with Tween-80.
Where [11] appears, read: dose: 200.0 mg/kg/injection, schedule: Q01DX005 (ip), vehicle: saline with Tween-80.
The mark [12] stands for this setting: dose: 25.0 mg/kg/injection, schedule: Q01DX005 (ip), vehicle: saline with Tween-80.
Where [13] appears, read: dose: 50.0 mg/kg/injection, schedule: Q01DX009 (ip), vehicle: saline.
Where [14] appears, read: dose: 100.0 mg/kg/injection, schedule: Q01DX009 (ip), vehicle: saline.
Where [15] appears, read: dose: 200.0 mg/kg/injection, schedule: Q01DX009 (ip), vehicle: saline.
The mark [16] stands for this setting: dose: 60.0 mg/kg/injection, schedule: Q01DX005 (ip), vehicle: Klucel (hydroxypropylcellulose) (HPC).
Where [17] appears, read: dose: 100.0 mg/kg/injection, schedule: Q01DX009 (ip), vehicle: saline with Tween-80.

Each structure is given as a SMILES string. Inconclusive results and toxic doses are left out.

Consider `CC(C)(C)N=C(CCN1CCN(CCC(=NC(C)(C)C)Nc2ccc([N+](=O)[O-])cc2)CC1)Nc1ccc([N+](=O)[O-])cc1`, for which the T/C is 92 % of control under setting [1]; 96 % of control under setting [2]; 87 % of control under setting [3]; 91 % of control under setting [4]; 93 % of control under setting [5].

Take `Cc1ccc(NCCNCCO)c2c(=O)c3ccccc3sc12`: the T/C reads like this: (dose: 3.75 mg/kg/injection, schedule: Q01DX009 (ip), vehicle: water) 100 % of control; (dose: 7.5 mg/kg/injection, schedule: Q01DX009 (ip), vehicle: distilled water + Tween-80) 113 % of control; (dose: 7.5 mg/kg/injection, schedule: Q01DX009 (ip), vehicle: water) 99 % of control; (dose: 12.5 mg/kg/injection, schedule: Q01DX005 (ip), vehicle: other) 113 % of control; (dose: 15.0 mg/kg/injection, schedule: Q01DX009 (ip), vehicle: distilled water + Tween-80) 120 % of control; (dose: 15.0 mg/kg/injection, schedule: Q01DX009 (ip), vehicle: water) 123 % of control. Moreover, the T/C is 120 % of control (dose: 25.0 mg/kg/injection, schedule: Q01DX005 (ip), vehicle: other); 119 % of control under setting [6]; 158 % of control under setting [7]; 155 % of control under setting [8].

Regarding `CC(C)(C)SC(=S)SCC(=O)c1cc2cc(Br)ccc2o1`, the T/C was 89 % of control under setting [9], 96 % of control under setting [10] and 93 % of control under setting [11].

Regarding `CCCCC(CC)C(=O)OC(C)C(N)=O` (stereo unspecified), the T/C was 105 % of control (dose: 50.0 mg/kg/injection, schedule: Q01DX005 (ip), vehicle: saline); 101 % of control (dose: 100.0 mg/kg/injection, schedule: Q01DX005 (ip), vehicle: saline); 101 % of control (dose: 200.0 mg/kg/injection, schedule: Q01DX005 (ip), vehicle: saline).

Turning to `CC1OC(OCC2OC(Oc3c(-c4ccc(O)c(O)c4)oc4cc(O)cc(O)c4c3=O)C(O)C(O)C2O)C(O)C(O)C1O` (stereo unspecified), the T/C runs as follows: (dose: 6.25 mg/kg/injection, schedule: Q01DX005 (ip), vehicle: saline with Tween-80) 95 % of control; (dose: 12.5 mg/kg/injection, schedule: Q01DX005 (ip), vehicle: saline with Tween-80) 94 % of control; under setting [12], 94 % of control.

For `CC(=O)OC1C(=O)OC(=O)C(OC(C)=O)C1OC(C)=O` (stereo unspecified), the T/C under setting [13] was 100 % of control, the T/C under setting [14] was 93 % of control and the T/C under setting [15] is 100 % of control.

Take `CCOC(=O)c1ccc(NC(=O)Nc2cccc(NC(C)=O)c2)cc1`: the T/C (dose: 15.0 mg/kg/injection, schedule: Q01DX005 (ip), vehicle: Klucel (hydroxypropylcellulose) (HPC)) was 92 % of control; the T/C (dose: 30.0 mg/kg/injection, schedule: Q01DX005 (ip), vehicle: Klucel (hydroxypropylcellulose) (HPC)) is 91 % of control; the T/C under setting [16] was 89 % of control.

As for `N#Cc1cc([N+](=O)[O-])c(Cl)c([N+](=O)[O-])c1Cl`, the T/C is 100 % of control (dose: 3.13 mg/kg/injection, schedule: Q04DX003 (ip), vehicle: saline with Tween-80); 100 % of control (dose: 6.25 mg/kg/injection, schedule: Q04DX003 (ip), vehicle: saline with Tween-80); 100 % of control (dose: 12.5 mg/kg/injection, schedule: Q04DX003 (ip), vehicle: saline with Tween-80).

As to `COc1cccc(C(=O)CCN(C)C(=O)OCc2ccccc2)c1OCc1ccccc1`, the T/C is, setting by setting: under setting [12], 94 % of control; under setting [9], 103 % of control; under setting [10], 103 % of control.

For `COC1CC(C)C(OC)C2=CC(=O)C=C(NC(=O)/C(C)=C/C=C\C(C)C(OC(N)=O)/C(C)=C\C(C)C1OC)C2=O` (stereo unspecified), the T/C was 121 % of control (dose: 5.0 mg/kg/injection, schedule: Q01DX009 (ip), vehicle: saline + alcohol); 123 % of control (dose: 10.0 mg/kg/injection, schedule: Q01DX009 (ip), vehicle: saline + alcohol); 86 % of control (dose: 20.0 mg/kg/injection, schedule: Q01DX009 (ip), vehicle: saline + alcohol).

For `O=C(Nc1nc2ccccc2s1)Nc1ccc([N+](=O)[O-])cc1Cl`, the T/C runs as follows: under setting [6], 98 % of control; under setting [7], 94 % of control; under setting [8], 90 % of control.

On to `Fc1ccc(N=Cc2ccc(C=Nc3ccc(F)cc3)cc2)cc1`, for which the T/C is 100 % of control under setting [13], 100 % of control under setting [14] and 97 % of control under setting [15].

As to `Cc1nc(SCC(=O)O)n[nH]1`, the T/C by setting is: under setting [4], 103 % of control; under setting [17], 103 % of control; (dose: 200.0 mg/kg/injection, schedule: Q01DX009 (ip), vehicle: saline with Tween-80) 101 % of control.

On to `Brc1cnc2nc(-c3cccc4ccccc34)[nH]c2c1`, for which the T/C (dose: 100.0 mg/kg/injection, schedule: Q01DX001 (ip), vehicle: saline with Tween-80) was 96 % of control; the T/C (dose: 200.0 mg/kg/injection, schedule: Q01DX001 (ip), vehicle: saline with Tween-80) is 94 % of control; the T/C (dose: 400.0 mg/kg/injection, schedule: Q01DX001 (ip), vehicle: saline with Tween-80) was 91 % of control.

On to `O=C(O)CC[S-].[Ag+]`, for which the T/C is 100 % of control (dose: 100.0 mg/kg/injection, schedule: Q04DX003 (ip), vehicle: saline); 100 % of control (dose: 200.0 mg/kg/injection, schedule: Q04DX003 (ip), vehicle: saline); 95 % of control (dose: 400.0 mg/kg/injection, schedule: Q04DX003 (ip), vehicle: saline).

As to `C/C(CCl)=N\NC1=NC2(CCCCC2)P(=O)(NNc2ncccn2)S1` (stereo unspecified), the T/C (dose: 37.5 mg/kg/injection, schedule: Q01DX005 (ip), vehicle: Klucel (hydroxypropylcellulose) (HPC)) is 103 % of control; the T/C under setting [16] was 102 % of control; the T/C (dose: 75.0 mg/kg/injection, schedule: Q01DX005 (ip), vehicle: Klucel (hydroxypropylcellulose) (HPC)) was 102 % of control; the T/C (dose: 120.0 mg/kg/injection, schedule: Q01DX005 (ip), vehicle: Klucel (hydroxypropylcellulose) (HPC)) is 100 % of control.

Consider `CCCCNC(=S)N/N=C/c1ccccn1`, for which the T/C under setting [2] is 101 % of control, the T/C under setting [4] is 94 % of control and the T/C under setting [17] was 111 % of control.

As for `COc1ccc2c(c1OC(C)=O)-c1cc(OC(C)=O)cc3c1C(C2)N(C(=O)CBr)CC3` (stereo unspecified), the T/C reads like this: (dose: 6.25 mg/kg/injection, schedule: Q01DX009 (ip), vehicle: saline with Tween-80) 104 % of control; under setting [1], 104 % of control.

As to `CC1CCCN2C(=O)CN(C3CCCCC3)CC(=O)N12` (stereo unspecified), the T/C is, setting by setting: under setting [9], 100 % of control; under setting [10], 100 % of control; under setting [11], 100 % of control.

Turning to `CN(C)c1cc(N(C)C)c2cc(C#N)ccc2n1`, the T/C is, setting by setting: under setting [3], 99 % of control; (dose: 100.0 mg/kg/injection, schedule: Q01DX009 (ip), vehicle: Klucel (hydroxypropylcellulose) (HPC)) 98 % of control; under setting [5], 107 % of control.

`COc1nc(SC)c(C#N)c(=O)[nH]1`: the T/C is, setting by setting: under setting [13], 107 % of control; under setting [14], 98 % of control; under setting [15], 107 % of control.

`CN(C)/[N+]([O-])=N/N1C(=O)c2ccccc2C1=O`: the T/C reads like this: under setting [6], 101 % of control; under setting [7], 105 % of control; under setting [8], 101 % of control.

Consider `CCN(CC)CCCCCNc1cc(Cl)c(Cl)cc1[N+](=O)[O-]`, for which the T/C reads like this: (dose: 12.5 mg/kg/injection, schedule: Q01DX009 (ip), vehicle: saline) 99 % of control; (dose: 25.0 mg/kg/injection, schedule: Q01DX009 (ip), vehicle: saline) 95 % of control; under setting [13], 107 % of control.

With `COc1ccc(/C=C\C(C)=N\NC(=S)Nc2ccc(Br)cc2)cc1`, the T/C under setting [6] is 97 % of control, the T/C under setting [7] was 96 % of control and the T/C under setting [8] was 89 % of control.
